# Patent US4859664A, “Derivatives of 2,3,4,5,6,7-hexahydro-2,7-methano-1,5-benzoxazonines and -1,4-benzoxazonines, processes for their production and their use as pharmaceuticals” (priority 1986, dated 1989)
# Where a name gives a salt, the structure may show the parent alone. Read-outs that look alike come from different tables or passages of the source.
# What was measured:
# [1] = influencing of hexobarbital narcosis; assay type: in vivo, male NMRI mice
# Protocol: (§1) […]. They were given a standard feed and water ad libitum up to the commencement of the experiments.
# (§2) The test compounds were administered in a volume of 10 ml./kg./body weight per mouse. As carrier, there was used physiological sodium chloride solution or a suspension of 0.5% tragacanth in physiological sodium chloride solution.
# (§3) The experimental results are given as average values with a mean error of the average value (x±S.E.M.). The ED50 values were calculated according to Litchfield and Wilcoxon (J. Pharmacol. Exp. Ther., 96, 99/1949). The compounds were thereby tested in 4 dosages (p≤0.5).
# 4. Influencing of hexobarbital narcosis.
# The test compounds were administered subcutaneously to 5 animals per dosage group. After 30 minutes, 100 mg./kg. hexobarbital sodium was administered intraperitoneally. 2 to 3 minutes after this injection, the animals allowed themselves to be laid on their backs. For each animal, there was measured the time in minutes from the commencement of the back position up to the time when the animals themselves twice successively again assumed the abdominal position.
# [2] = assay type: in vivo, male NMRI mice
# Protocol: as §1, §2, §3
# (§4) For the significance calculation, there was used Student's t test (see Angewandte Statistik, pub. Stringer Verlag, Berlin, Heidelberg, 242/1983), as well as the range sum test of Mann and Withney (Ann. Math. stat., 50, 1818/1947).
# (§5) 1.1. In the acetic acid writhing test (see R. Koster et al., Fed. proc., 18, 412/1954), the typical stretching movements referred to as "writhing", were produced by the intraperitoneal administration of a 0.6% acetic acid solution. 30 minutes previously, the substance to be tested was administered subcutaneously (s.c.) or orally ([…].) to the animals. 3 minutes after administration of the acetic acid solution, the total number of stretching movements in a period of time of 10 minutes was ascertained. From the decrease of the stretching reactions due to the action of the test compound in comparison with non-pretreated control groups, there was determined the percentage inhibition action.
# [3] = influencing of the amphetamine group toxicity; assay type: in vivo, male NMRI mice; conditions: amphetamine control group, 15 mg. s.c.
# Protocol: as §1, §2
# 3. Influencing of the amphetamine group toxicity.
# There was investigated the influence of the test compounds on the mortality of amphetamine-treated, aggregated mice. The dosaging of d-amphetamine was 15 mg./kg., which should permit the recognition not only of a synergism but also of an antagonism towards a sympathomimetic compound. Carrying out the experiment:
# 30 minutes after the subcutaneous administration of the test substance, the animals received subcutaneously 15 mg./kg. of d-amphetamine sulphate. The number of dead animals was recorded after 2, 4 and 7 hours. For the maintenance of the group size, the dead animals were replaced by untreated animals (6 animals/dosage group).
# [4] = assay type: in vivo, male NMRI mice; remark: listed apart in the source
# Protocol: as §1, §2
# 2. Development of dependency.
# Withdrawal jumps of the mouse (see J. K. Saelens et al., Arch. Int. Pharmacodyn. Ther., 190, 213/1971).
# Mice which were dependent upon morphine or other opiates react, when treated with morphine antagonists, with a flight reaction (see F. Huidobro and C. Maggiolo, Arch. Int. Pharmacodyn. Ther., 158, 97/1965); E. L. Way et al., Science, 162, 1290/1968). This flight reaction manifests itself in very vigorous jumping reactions which continue for about 10 minutes. From the number of reacting animals and especially from the jump frequency per animal, there can be deduced the strength of the withdrawal symptoms and thus the degree of dependency upon the test compound. Carrying out of the test:
# The test and standard compounds were administered subcutaneously according to the scheme shown in the following Table III in increasing dosages over the course of 2 days.
# For the provocation of the withdrawal jumps, the animals received intraperitoneally, 2 hours after the last compound administration, 30 mg./kg. naloxone hydrochloride.
# Immediately after the administration of the naloxone, the animals were placed individually in a 5 liter glass beaker. Subsequently, the number of jump movements was recorded during the course of 10 minutes. For evaluation, the number of animals reacting the withdrawal jumps, as well as the average number of jumps per animal, was used.
# The animals of the naloxone control group were, up to the administration of naloxone, treated with a 0.9% aqueous solution of sodium chloride (6 animals/dosage group).
# [5] = tonus reduction on striated musculature; assay type: in vivo, male NMRI mice; conditions: 5 mg./kg. s.c.
# Protocol: (§6) For the pharmacological investigations described in the following, there were used male NMRI mice with a weight of from 15 to 30 g. The animals were kept under usual laboratory conditions, randomised and subjected to a light-dark change with a 12 hour rhythm. They were given a standard feed and water ad libitum up to the commencement of the experiments.
# as §2
# 6. Tonus reduction on striated musculature.
# The test used is described by J. P. Chambon et al. (Arzneimittelforschung (Drug Research), 35 (II), (10), 1572/1985).
# 5 animals per dosage group were placed with their front paws on a horizontal metal rod (diameter 3 mm., length 20 cm.) which was fixed 30 cm. above a laboratory bench. Mice with normal muscle tonus climbed within 5 seconds on to the rod with at least one rear paw.
# 40, 80 and 120 minutes after the subcutaneous administration of the test compound, the animals were again tested for this ability and the number of incapable animals was recorded.
# [6] = testing for ataxia (rotating rod test); assay type: in vivo, male NMRI mice
# Protocol: as §6, §2
# There was used the rotating rod test (see F. Gross et al., Schweiz. Med. Wschr., 85, 305/1955).
# 5 animals per dosage group were trained to keep themselves on a horizontally rotating rod made of synthetic resin (16 rpm). 40, 80 and 120 minutes after the subcutaneous administration of the test compounds, the animals were again tested. From the number of animals which fell off prematurely, there was determined the disturbance of the movement coordination.
# [7] = assay type: in vivo, male NMRI mice; conditions: given without sign
# Protocol: They were given a standard feed and water ad libitum up to the commencement of the experiments.
# as §2, §3, §4, §5
# Naloxone-antagonistic action in the writhing test.
# 20 Minutes before the subcutaneous administration of the test compounds, the animals were given 20 mg./kg. naloxone hydrochloride subcutaneously. The further carrying out of the experiments was as described above.
smiles,measurement,setting,value
"CN1C(=O)NC(=O)C(C)(C2=CCCCC2)C1=O (stereo not shown) [hexobarbital, reference compound]",period of narcosis ± SEM,"[1]; hexobarbital alone, 100 mg/kg ip",92.4 ± 17.1 min
"CC1CCCC2C3CNCCC12Oc1ccccc13 (stereo not drawn) [Example 12, B/C-trans-1,2,3,4,4a,9a-hexahydro-4-methyl-4a,9-(3-azabutano)-xanthene]",inhibiting action in writhing test,[2]; 25 mg./kg. s.c.,24%
same,inhibiting action in writhing test,[2]; 50 mg./kg. s.c.,79%
"CC(N)Cc1ccccc1 (stereo not shown) [amphetamine, reference compound]",% of deceased animals after 2 hrs.,[3],0%
same,% of deceased animals after 4 hrs.,[3],33%
same,% of deceased animals after 7 hrs.,[3],0%
same,"% of deceased animals, total",[3],33.3%
"COc1ccc2c3c1O[C@H]1[C@@H](O)C=C[C@H]4[C@@H](C2)N(C)CC[C@@]341 [codeine phosphate, reference compound]",change with regard to hexabarbital sodium,[1]; 50 mg/kg sc,+51.2 min.
same,period of narcosis ± SEM,"[1]; 50 mg/kg sc, hexobarbital sodium 100 mg./kg. i.p.",143.6 ± 10.5 min
"CN1CC[C@]23c4c5ccc(O)c4O[C@H]2[C@@H](O)C=C[C@H]3[C@H]1C5.Cl [morphine HCl, reference compound]",% of reacting animals,"[4]; mouse, in vivo",100%
"COc1cccc(C2(O)CCCCC2CN(C)C)c1 (stereo not shown) [tramadol HCl, reference compound]",% of reacting animals,"[4]; s.c. increasing dosages over 2 days, naloxone i.p., 10 minutes",83.3%
"CN1C(=O)CN=C(c2ccccc2)c2cc(Cl)ccc21 [diazepam, reference compound]",relaxing action,[5],93%
same,"change of the maintenance time in % compared with the control group, after 40 min.",[6]; 5 mg/kg s.c.,-87%
same,"change of the maintenance time in % compared with the control group, after 80 min.",[6]; 5 mg/kg s.c.,-73%
same,"change of the maintenance time in % compared with the control group, after 120 min.",[6]; 5 mg/kg s.c.,-22%
"CCC1(c2ccccc2)C(=O)NC(=O)NC1=O [phenobarbital, reference compound]","change of the maintenance time in % compared with the control group, after 40 min.",[6]; 30 mg/kg s.c.,-29%
same,"change of the maintenance time in % compared with the control group, after 80 min.",[6]; 30 mg/kg s.c.,-21%
same,"change of the maintenance time in % compared with the control group, after 120 min.",[6]; 30 mg/kg s.c.,-37%
same,"change of the maintenance time in % compared with the control group, after 40 min.",[6]; 50 mg/kg s.c.,-54%
same,"change of the maintenance time in % compared with the control group, after 80 min.",[6]; 50 mg/kg s.c.,-46%
same,"change of the maintenance time in % compared with the control group, after 120 min.",[6]; 50 mg/kg s.c.,-42%
"CC(N)Cc1ccccc1.O=S(=O)(O)O (stereo not shown) [amphetamine sulphate, reference compound]",change with regard to hexabarbital sodium,[1]; 1.0 mg/kg sc,-43.2 min
same,period of narcosis ± SEM,"[1]; 1.0 mg/kg sc, hexobarbital sodium 100 mg./kg. i.p.",49.2 ± 14.6 min
"COc1cccc(C2(O)CCCCC2CN(C)C)c1 (stereo not shown) [tramadol, 2-[(dimethylamino)-methyl]-1-(3-methoxyphenyl)-cyclohexanol, reference compound]",change in % (with vs without naloxone),[7]; 10 mg/kg s.c.,39.0%
same,change in % (with vs without naloxone),[7]; 20 mg/kg s.c.,30.7%
